Some test systems named below: 786-0 renal; ACHN renal; HCT-116 colon; HL-60(TB) leukemia; HOP-62 NSCLC; K-562 leukemia; MALME-3M melanoma; MCF7 breast; MDA-N; NCI-H460 lung; NCI/ADR-RES ovarian; OVCAR-3 ovarian; OVCAR-4 ovarian; SW-620 colon; UACC-257 melanoma; UO-31 renal; DU-145 prostate; MDA-MB-231 breast; RXF 393 renal; T-47D breast.
What all share (assay): growth of human tumour cells (NCI), 48 h

Each structure is given as a SMILES string.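 1) Cells in 96-well plates. 2) Compound, 48 h, 5 concentrations. 3) Linear interpolation between surrounding doses. 4) Unreached endpoint = highest concentration. At the TGI there is no net growth.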

On to `CCCNC(=O)Cn1c2c(c3ccccc31)CCCC2`, for which the TGI with 786-0 renal, in the assay with ACHN renal, with HCT-116 colon, in the assay on HL-60(TB) leukemia, with HOP-62 NSCLC and with K-562 leukemia was greater than 100 µM each time. Besides, the TGI in the assay on MALME-3M melanoma, with MCF7 breast, in the assay on MDA-N, with NCI-H460 lung, with NCI/ADR-RES ovarian and in the assay with OVCAR-3 ovarian was greater than 100 µM throughout. Moreover, the TGI is greater than 100 µM in the assay on OVCAR-4 ovarian, greater than 100 µM in the assay with SW-620 colon, greater than 100 µM in the assay on UACC-257 melanoma and 89.9 µM in the assay on UO-31 renal.
For the compound `CCSC1=N/C(=C\c2ccco2)C(Nc2ccc(C)cc2)=N1`, the TGI in the assay on 786-0 renal, with ACHN renal, in the assay on DU-145 prostate, in the assay with HCT-116 colon, in the assay with HOP-62 NSCLC and in the assay on K-562 leukemia was greater than 100 µM each time. Further, the TGI in the assay with MALME-3M melanoma, in the assay on MCF7 breast, with MDA-MB-231 breast, in the assay with MDA-N, in the assay on NCI/ADR-RES ovarian and in the assay on OVCAR-3 ovarian was greater than 100 µM in each case. Besides, the TGI with SW-620 colon and in the assay on UO-31 renal was greater than 100 µM in each case.
For the compound `O=C1C2CCCC2N1Cc1ccccc1` (stereo unspecified), the TGI with 786-0 renal, in the assay with ACHN renal, in the assay on DU-145 prostate, with HCT-116 colon, with HL-60(TB) leukemia and in the assay with HOP-62 NSCLC was greater than 100 µM in each case. Further, the TGI with K-562 leukemia, in the assay on MCF7 breast, in the assay with MDA-N, with NCI-H460 lung, in the assay with NCI/ADR-RES ovarian and with OVCAR-3 ovarian was greater than 100 µM in each case. In addition, the TGI with OVCAR-4 ovarian is greater than 100 µM; with RXF 393 renal, greater than 100 µM; in the assay on SW-620 colon, greater than 100 µM; in the assay on T-47D breast it was greater than 100 µM; in the assay with UACC-257 melanoma it was greater than 100 µM; with UO-31 renal, 28.5 µM.
On to `COC(=O)Cc1cccc2c(=O)c(S(=O)(=O)NC(=O)Nc3ccc(Cl)cc3)c(-c3ccccc3)oc12`, for which the TGI with 786-0 renal was greater than 100 µM; in the assay on ACHN renal, 63.5 µM; in the assay on DU-145 prostate, greater than 100 µM; in the assay on HCT-116 colon it was greater than 100 µM; in the assay with HOP-62 NSCLC, greater than 100 µM; with K-562 leukemia, greater than 100 µM. For the same compound, the TGI in the assay on MCF7 breast, in the assay with MDA-MB-231 breast, in the assay with MDA-N, with NCI-H460 lung, with NCI/ADR-RES ovarian and with OVCAR-3 ovarian was greater than 100 µM in each case. Moreover, the TGI in the assay with OVCAR-4 ovarian, with SW-620 colon, with UACC-257 melanoma and with UO-31 renal was greater than 100 µM in each case.
In the case of `Cn1c2ccccc2c2c3c(c4c5ccccc5n(C)c4c21)C(=O)N(Cc1ccccc1)C3=O`, the TGI with 786-0 renal, in the assay with ACHN renal, in the assay with DU-145 prostate, in the assay with HCT-116 colon, with HOP-62 NSCLC and in the assay with K-562 leukemia was greater than 100 µM throughout. In addition, the TGI in the assay on MALME-3M melanoma, with MCF7 breast, in the assay on MDA-MB-231 breast, with MDA-N, with NCI-H460 lung and in the assay with NCI/ADR-RES ovarian was greater than 100 µM each time. Also, the TGI in the assay with OVCAR-4 ovarian, in the assay with SW-620 colon, in the assay on T-47D breast, in the assay with UACC-257 melanoma and in the assay on UO-31 renal was greater than 100 µM each time.
On to `Cc1ccc(C(=O)C2C=C(c3ccc(C)cc3)SC3C=CCC32)cc1` (stereo unspecified), for which the TGI in the assay on 786-0 renal was 38.3 µM; in the assay with ACHN renal, 47.7 µM; in the assay with DU-145 prostate, greater than 100 µM; in the assay with HCT-116 colon, 27.8 µM; in the assay on HL-60(TB) leukemia, greater than 100 µM; in the assay on HOP-62 NSCLC, 45.2 µM. Besides, the TGI was greater than 100 µM in the assay on K-562 leukemia; 34.1 µM in the assay on MALME-3M melanoma; 43.8 µM with MDA-MB-231 breast; 32.3 µM with MDA-N; 37.3 µM in the assay on NCI-H460 lung; 40.8 µM in the assay with NCI/ADR-RES ovarian. The TGI with OVCAR-3 ovarian was 31.8 µM; in the assay with OVCAR-4 ovarian, 75.7 µM; in the assay with RXF 393 renal, 37.7 µM; with SW-620 colon, 29.8 µM; in the assay on T-47D breast, 50.6 µM; in the assay on UACC-257 melanoma it was 54.3 µM. Also, the TGI in the assay with UO-31 renal is 29.6 µM.
In the case of `C=C(C)[C@@]12C[C@H](OC(=O)[C@H](O)[C@@H](NC(=O)c3ccccc3)c3ccccc3)C(C)=C1[C@@H](OC(C)=O)C(=O)[C@@]1(C)C([C@@H]2OC(=O)c2cc(F)cc(F)c2)C2(OC(C)=O)CO[C@@H]2C[C@@H]1O` (stereo partly specified), the TGI with 786-0 renal was 3.3 µM; in the assay on ACHN renal it was greater than 9.36 µM; in the assay with DU-145 prostate, greater than 5.16 µM; in the assay on HCT-116 colon, 1.22 µM; in the assay on HL-60(TB) leukemia, 0.224 µM; with HOP-62 NSCLC it was greater than 5.79 µM. The TGI was greater than 6.66 µM in the assay with K-562 leukemia; greater than 8.81 µM in the assay on MALME-3M melanoma; greater than 10 µM with MCF7 breast; 2.22 µM in the assay on MDA-MB-231 breast; 9.22 µM in the assay on NCI-H460 lung; 6.63 µM in the assay on NCI/ADR-RES ovarian. Besides, the TGI is 1.92 µM in the assay on OVCAR-3 ovarian; greater than 10 µM in the assay with OVCAR-4 ovarian; 0.582 µM in the assay with RXF 393 renal; greater than 10 µM in the assay with SW-620 colon; greater than 8.57 µM with T-47D breast; 2.79 µM in the assay on UACC-257 melanoma. The compound also came in with a TGI with UO-31 renal greater than 10 µM.
Take `CC(=O)/C(=C/N1CC(=O)NC1=S)C(=O)Nc1ccccc1C`: the TGI in the assay on 786-0 renal, in the assay with ACHN renal, in the assay on DU-145 prostate, with HCT-116 colon, in the assay on HL-60(TB) leukemia and in the assay on HOP-62 NSCLC was greater than 100 µM in each case. In addition, the TGI in the assay with MDA-MB-231 breast, with MDA-N, in the assay on NCI-H460 lung, with NCI/ADR-RES ovarian, in the assay on OVCAR-3 ovarian and in the assay with OVCAR-4 ovarian was greater than 100 µM each time. Besides, the TGI in the assay with RXF 393 renal, in the assay on SW-620 colon, with T-47D breast, with UACC-257 melanoma and in the assay on UO-31 renal was greater than 100 µM in each case.

The values above are taken from PubChem BioAssay (NCI).
